{
  "source": "patent US11760974B2",
  "about": "“Personalized 3D neural culture system for generating human oligodendrocytes and studying myelination in vitro” (The Board of Trustees of the Leland Stanford Junior …, priority 2017, dated 2023)",
  "origin": "cited, not measured here",
  "key": {"[1]": {"biological_target": "T1, Wnt processing and secretion (Porcn) (Homo sapiens, UniProt Q9H237)", "T1 sequence (Q9H237 1-461)": "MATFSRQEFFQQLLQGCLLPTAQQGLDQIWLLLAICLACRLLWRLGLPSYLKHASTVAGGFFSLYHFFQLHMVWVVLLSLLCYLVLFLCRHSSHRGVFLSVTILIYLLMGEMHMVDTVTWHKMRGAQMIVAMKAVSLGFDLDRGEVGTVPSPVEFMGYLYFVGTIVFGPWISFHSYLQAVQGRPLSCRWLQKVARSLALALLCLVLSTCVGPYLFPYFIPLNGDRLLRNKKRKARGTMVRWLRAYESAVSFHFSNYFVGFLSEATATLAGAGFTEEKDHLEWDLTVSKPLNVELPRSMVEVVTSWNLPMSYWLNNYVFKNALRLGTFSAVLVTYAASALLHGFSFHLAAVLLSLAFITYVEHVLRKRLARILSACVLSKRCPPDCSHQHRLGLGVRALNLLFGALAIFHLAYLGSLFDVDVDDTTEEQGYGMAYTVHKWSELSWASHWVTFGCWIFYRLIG", "settings": "cell-free assay"}, "[2]": {"system": "Wnt signaling in TM3 cells (PORCN)", "settings": "read-out: IC50 Wnt signaling inhibition"}, "[3]": {"biological_target": "element-binding protein (CBP) (Homo sapiens, UniProt Q92793)", "sequence (Q92793 whole entry)": "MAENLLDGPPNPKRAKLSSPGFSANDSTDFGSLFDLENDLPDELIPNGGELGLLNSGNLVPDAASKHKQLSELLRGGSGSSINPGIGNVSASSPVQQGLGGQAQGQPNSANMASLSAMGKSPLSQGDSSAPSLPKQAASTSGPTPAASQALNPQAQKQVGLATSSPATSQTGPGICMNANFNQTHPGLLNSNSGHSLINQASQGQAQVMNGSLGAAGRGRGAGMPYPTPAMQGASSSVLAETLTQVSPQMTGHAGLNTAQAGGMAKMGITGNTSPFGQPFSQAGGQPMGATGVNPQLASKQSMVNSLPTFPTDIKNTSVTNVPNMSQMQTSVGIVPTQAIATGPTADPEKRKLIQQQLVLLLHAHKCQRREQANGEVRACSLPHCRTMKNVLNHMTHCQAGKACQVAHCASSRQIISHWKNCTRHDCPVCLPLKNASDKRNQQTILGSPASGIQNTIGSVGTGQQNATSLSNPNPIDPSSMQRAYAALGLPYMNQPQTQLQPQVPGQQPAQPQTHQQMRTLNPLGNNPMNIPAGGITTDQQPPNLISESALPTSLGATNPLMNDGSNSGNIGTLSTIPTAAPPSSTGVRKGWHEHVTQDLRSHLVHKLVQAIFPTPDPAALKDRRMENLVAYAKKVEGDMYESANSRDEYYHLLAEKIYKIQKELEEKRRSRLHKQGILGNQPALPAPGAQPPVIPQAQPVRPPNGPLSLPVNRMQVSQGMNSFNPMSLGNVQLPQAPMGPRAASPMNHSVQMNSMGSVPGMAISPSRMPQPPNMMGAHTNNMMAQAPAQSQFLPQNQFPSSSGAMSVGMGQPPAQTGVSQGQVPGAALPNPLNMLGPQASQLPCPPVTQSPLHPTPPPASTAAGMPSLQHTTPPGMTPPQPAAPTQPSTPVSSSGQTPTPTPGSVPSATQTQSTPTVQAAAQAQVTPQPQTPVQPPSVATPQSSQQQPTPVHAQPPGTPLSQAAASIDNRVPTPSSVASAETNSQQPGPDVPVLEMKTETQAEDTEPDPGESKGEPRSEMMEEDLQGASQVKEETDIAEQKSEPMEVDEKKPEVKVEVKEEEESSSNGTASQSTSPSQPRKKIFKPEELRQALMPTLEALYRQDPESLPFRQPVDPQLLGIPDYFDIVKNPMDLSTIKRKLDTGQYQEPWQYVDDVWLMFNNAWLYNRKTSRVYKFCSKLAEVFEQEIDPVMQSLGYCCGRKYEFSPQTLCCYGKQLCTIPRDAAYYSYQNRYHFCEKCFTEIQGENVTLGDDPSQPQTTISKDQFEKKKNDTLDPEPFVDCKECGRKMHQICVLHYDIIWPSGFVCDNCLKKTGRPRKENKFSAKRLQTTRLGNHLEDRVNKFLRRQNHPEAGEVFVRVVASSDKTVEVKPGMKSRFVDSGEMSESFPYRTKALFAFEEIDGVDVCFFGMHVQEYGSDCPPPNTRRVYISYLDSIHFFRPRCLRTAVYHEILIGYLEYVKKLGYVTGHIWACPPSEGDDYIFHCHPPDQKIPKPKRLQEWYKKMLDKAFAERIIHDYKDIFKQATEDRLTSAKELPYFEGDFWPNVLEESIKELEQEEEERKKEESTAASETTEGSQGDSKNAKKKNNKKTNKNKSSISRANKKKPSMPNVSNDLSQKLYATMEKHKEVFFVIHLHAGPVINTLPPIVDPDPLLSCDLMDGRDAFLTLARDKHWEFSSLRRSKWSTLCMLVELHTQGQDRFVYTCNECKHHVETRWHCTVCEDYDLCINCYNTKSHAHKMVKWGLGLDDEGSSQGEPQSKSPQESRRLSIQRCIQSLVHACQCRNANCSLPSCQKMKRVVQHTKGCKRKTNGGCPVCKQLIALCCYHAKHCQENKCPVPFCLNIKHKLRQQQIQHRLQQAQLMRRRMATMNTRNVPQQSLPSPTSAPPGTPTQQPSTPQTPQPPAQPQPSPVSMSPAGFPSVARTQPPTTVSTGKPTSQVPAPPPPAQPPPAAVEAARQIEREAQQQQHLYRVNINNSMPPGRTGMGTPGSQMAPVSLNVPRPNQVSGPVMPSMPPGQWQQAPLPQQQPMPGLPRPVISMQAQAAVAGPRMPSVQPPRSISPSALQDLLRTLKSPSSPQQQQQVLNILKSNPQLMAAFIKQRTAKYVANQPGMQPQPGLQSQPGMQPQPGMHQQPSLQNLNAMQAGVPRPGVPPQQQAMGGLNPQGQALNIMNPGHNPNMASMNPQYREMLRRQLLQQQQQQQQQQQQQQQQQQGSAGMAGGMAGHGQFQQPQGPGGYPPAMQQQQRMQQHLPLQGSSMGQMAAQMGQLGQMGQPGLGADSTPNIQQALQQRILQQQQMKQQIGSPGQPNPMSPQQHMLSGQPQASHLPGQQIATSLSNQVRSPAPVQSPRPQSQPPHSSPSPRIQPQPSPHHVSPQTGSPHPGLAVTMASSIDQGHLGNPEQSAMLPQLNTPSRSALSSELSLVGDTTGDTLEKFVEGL"}, "TNKS2": {"biological_target": "T2, TNKS2 (Homo sapiens, UniProt Q9H2K2)", "T2 sequence (Q9H2K2 1-1166)": "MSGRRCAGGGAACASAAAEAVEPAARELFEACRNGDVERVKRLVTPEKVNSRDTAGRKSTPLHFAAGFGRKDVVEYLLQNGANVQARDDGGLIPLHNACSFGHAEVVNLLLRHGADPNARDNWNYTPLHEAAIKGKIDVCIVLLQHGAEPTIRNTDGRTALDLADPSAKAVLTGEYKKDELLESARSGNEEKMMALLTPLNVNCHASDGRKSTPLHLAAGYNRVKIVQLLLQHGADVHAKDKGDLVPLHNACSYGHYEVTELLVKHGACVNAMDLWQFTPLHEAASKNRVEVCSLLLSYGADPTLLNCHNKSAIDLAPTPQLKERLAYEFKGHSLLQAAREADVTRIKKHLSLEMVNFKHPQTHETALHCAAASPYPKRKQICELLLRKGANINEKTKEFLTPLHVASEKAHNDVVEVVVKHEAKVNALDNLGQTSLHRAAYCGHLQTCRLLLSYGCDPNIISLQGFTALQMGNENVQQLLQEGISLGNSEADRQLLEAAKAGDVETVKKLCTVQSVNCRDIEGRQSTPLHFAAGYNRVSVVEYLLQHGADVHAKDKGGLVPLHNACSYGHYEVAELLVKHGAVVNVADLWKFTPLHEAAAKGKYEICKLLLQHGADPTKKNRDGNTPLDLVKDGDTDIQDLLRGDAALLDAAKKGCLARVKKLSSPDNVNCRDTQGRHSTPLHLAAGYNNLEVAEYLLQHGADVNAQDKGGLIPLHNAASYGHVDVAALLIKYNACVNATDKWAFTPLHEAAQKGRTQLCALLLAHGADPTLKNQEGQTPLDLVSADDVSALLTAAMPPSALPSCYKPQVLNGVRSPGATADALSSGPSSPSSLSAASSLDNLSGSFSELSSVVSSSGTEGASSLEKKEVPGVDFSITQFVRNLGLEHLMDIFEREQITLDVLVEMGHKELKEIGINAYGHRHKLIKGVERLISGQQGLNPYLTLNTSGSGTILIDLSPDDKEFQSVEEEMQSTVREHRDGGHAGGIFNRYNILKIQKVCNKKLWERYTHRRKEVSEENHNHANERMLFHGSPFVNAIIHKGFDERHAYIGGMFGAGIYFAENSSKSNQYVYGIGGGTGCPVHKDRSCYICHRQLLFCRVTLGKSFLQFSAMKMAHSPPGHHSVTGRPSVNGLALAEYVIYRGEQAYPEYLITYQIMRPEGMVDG"}, "[4]": {"system": "PORCN / Wnt3A-mediated TCF-luciferase activation in HEK293 cells", "settings": "read-out: IC50 Wnt3A-mediated activation of TCF-binding site driving luciferase"}, "Porcn": {"biological_target": "T3, Porcn (Homo sapiens, UniProt Q9H237)", "T3 sequence (Q9H237 1-461)": "T1 sequence (Q9H237 1-461)", "settings": "read-out: EC50 Porcn inhibitor"}, "[5]": {"system": "Wnt pathway in L-cells expressing Wnt3A", "settings": "read-out: IC50 Wnt pathway inhibition"}},
  "data": [
    {"smiles": "Cc1ccc2nc(NC(=O)CSc3nc4c(c(=O)n3-c3ccccc3)SCC4)sc2c1", "note": "[IWP-2]", "values": [
      {"measurement": "IC50", "setting": "[1]", "value": 27, "unit": "nM"}
    ]},
    {"smiles": "Cc1cc(-c2ncc(CC(=O)Nc3ccc(-c4cnccn4)cn3)cc2C)ccn1", "note": "[LGK-974]", "values": [
      {"measurement": "IC50", "setting": "[2]", "value": 0.4, "unit": "nM"}
    ]},
    {"smiles": "O=C1[C@H](Cc2ccc(O)cc2)N2C(=O)CCN(C(=O)NCc3ccccc3)[C@H]2CN1Cc1cccc2ccccc12", "note": "[ICG-001]", "values": [
      {"measurement": "IC50", "setting": "[3]", "value": 3000, "unit": "nM"}
    ]},
    {"smiles": "COc1ccc(-n2c(SCCCN3C(=O)c4cccc5cccc(c45)C3=O)nnc2-c2ccncc2)cc1", "note": "[WIKI4]", "values": [
      {"measurement": "IC50", "setting": "TNKS2", "value": 15, "unit": "nM"}
    ]},
    {"smiles": "Cc1cc(-c2ccc(CC(=O)Nc3ccc(-c4cccnc4)cc3)cc2)ccn1", "note": "[Wnt-C59]", "values": [
      {"measurement": "IC50", "setting": "[4]", "value": 0.074, "unit": "nM"}
    ]},
    {"smiles": "O=C(CSc1nc2c(c(=O)n1-c1ccccc1)SCC2)Nc1ccc(-c2ccccc2)cn1", "note": "[IWP-L6]", "values": [
      {"measurement": "EC50", "setting": "Porcn", "value": 0.5, "unit": "nM"}
    ]},
    {"smiles": "O=C(Nc1cccc2cccnc12)c1ccc(N2C(=O)[C@@H]3[C@H](C2=O)[C@@H]2C=C[C@H]3C2)cc1", "note": "[IWR-1-endo]", "values": [
      {"measurement": "IC50", "setting": "[5]", "value": 180, "unit": "nM"}
    ]}
  ]
}
